Measured values: patent US6500827B2, “Drug combinations” (Pharmacia & Upjohn Company, priority 1998, dated 2002)

Experiments:
tolerability and safety = settings: in vivo
Experimental: It is more commonly provided in dosages of from 1 to 20 mg per patient per day. […] Other adverse reactions are possible. […] Both compounds may be administered by any suitable method including a convenient oral dosage form. A preferred method is oral dosing twice a day.

dopamine uptake = test system: dopamine uptake
Text: (§1) Leonard-BE, “Noradrenaline in basic models of depression.” European-Neuropsychopharnacol. April 1997; 7 Suppl 1: S11-6; discussion S71-3.

monoamine oxidase (MAO) = test system: monoamine oxidase (MAO)
Text: as §1

norepinephrine uptake = settings: compared with classical tricyclic antidepressants
Text: as §1

serotonin uptake = test system: serotonin uptake
Text: as §1

[1] = test system: muscarinic cholinergic receptors; test: interaction with muscarinic cholinergic receptors; assay type: binding
I-adrenerigic receptors = test: interaction with I-adrenerigic receptors; assay type: binding
[2] = test system: patients with a DSM-III-R diagnosis of Obsessive Compulsive Disorder; test: trial in patients with Obsessive Compulsive Disorder; assay type: in vivo, human; settings: of 10 OCD patients, 6 mg first week then 8 mg, 3 to 4 weeks
Text: This study is provided to illustrate the usefulness of using reboxetine as a treatment for OCD and the invention described herein should not be considered limited by this example.

8-OH-DPAT hypothermia = settings: in vivo; cited from earlier work

| SMILES | tolerability / safety (tolerability and safety) | dopamine uptake inhibitory activity (dopamine uptake) | monoamine oxidase (MAO) inhibitory activity (monoamine oxidase (MAO)) | inhibition of the reuptake of noradrenaline (norepinephrine uptake) | serotonin uptake inhibitory activity (serotonin uptake) | interaction with muscarinic cholinergic receptors [1] | interaction with I-adrenerigic receptors (I-adrenerigic receptors) | patients judged minimally improved at CGI last assessment [2] | patients judged much improved at CGI last assessment [2] | patients judged very much improved at CGI last assessment [2] | patients unchanged at CGI last assessment [2] | effect in the 8-OH-DPAT hypothermia test (8-OH-DPAT hypothermia) |
| --- | --- | --- | --- | --- | --- | --- | --- | --- | --- | --- | --- | --- |
| CC(C)NCC(O)COc1cccc2[nH]ccc12 (stereo not drawn) [Pindolol, 1-(1H-Indol-4-yloxy)-3-[(1-methylethyl)amino]-2-propanol] | fairly safe | – | – | – | – | – | – | – | – | – | – | – |
| CCOc1ccccc1OC(c1ccccc1)C1CNCCO1 (stereo not drawn) [reboxetine] | – | no dopamine uptake inhibitory activity | devoid | inhibitory properties of classical tricyclic antidepressants | only marginal | without showing any appreciable interaction | without showing any appreciable interaction | 2 | 4 | one | 3 | ineffective |
